According to patent US20250059194A1, “ULK1 AND ULK2 INHIBITORS” (Board of Trustees of Michigan State University, priority 2021, published 2025):
Where a name gives a salt, the structure may show the parent alone.

Columns and labels:
ULK1 = ULK1 (Homo sapiens (Human), UniProt O75385); assay: ULK1 IC50; format: biochemical
ULK2 = ULK2 (Homo sapiens (Human), UniProt Q8IYT8); assay: ULK2 IC50; format: biochemical
Cell = Cell EC50; format: cell-based
Kinetic Solubility = format: physicochemical; conditions: kinetic from dmso stock

ULK1, sequence (O75385 whole entry): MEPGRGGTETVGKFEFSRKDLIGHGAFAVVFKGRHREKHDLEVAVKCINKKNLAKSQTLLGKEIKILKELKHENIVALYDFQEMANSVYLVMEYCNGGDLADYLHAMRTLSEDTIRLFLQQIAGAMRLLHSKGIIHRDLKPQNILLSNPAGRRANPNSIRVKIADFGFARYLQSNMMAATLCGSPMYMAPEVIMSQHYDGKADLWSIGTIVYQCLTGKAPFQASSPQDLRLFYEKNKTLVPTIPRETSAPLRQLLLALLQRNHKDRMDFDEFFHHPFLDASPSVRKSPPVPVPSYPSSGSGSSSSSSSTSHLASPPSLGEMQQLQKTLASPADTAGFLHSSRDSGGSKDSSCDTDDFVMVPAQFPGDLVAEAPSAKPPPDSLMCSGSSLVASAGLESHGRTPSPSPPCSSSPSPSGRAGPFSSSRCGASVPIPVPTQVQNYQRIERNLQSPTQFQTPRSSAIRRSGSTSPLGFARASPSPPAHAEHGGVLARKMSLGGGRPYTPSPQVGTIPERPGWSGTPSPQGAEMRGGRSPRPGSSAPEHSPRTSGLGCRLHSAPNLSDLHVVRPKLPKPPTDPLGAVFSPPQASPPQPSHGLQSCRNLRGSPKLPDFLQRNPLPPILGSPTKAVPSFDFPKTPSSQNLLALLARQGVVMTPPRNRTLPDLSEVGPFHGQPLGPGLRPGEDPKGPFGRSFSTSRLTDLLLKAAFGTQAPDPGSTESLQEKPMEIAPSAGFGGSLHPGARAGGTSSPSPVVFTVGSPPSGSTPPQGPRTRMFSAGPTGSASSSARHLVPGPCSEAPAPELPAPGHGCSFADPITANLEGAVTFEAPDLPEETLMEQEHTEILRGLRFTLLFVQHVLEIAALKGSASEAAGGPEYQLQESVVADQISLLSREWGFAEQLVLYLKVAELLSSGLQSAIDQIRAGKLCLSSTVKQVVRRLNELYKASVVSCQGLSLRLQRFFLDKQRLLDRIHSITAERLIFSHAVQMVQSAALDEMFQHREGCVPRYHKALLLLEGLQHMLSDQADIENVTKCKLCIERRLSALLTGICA
ULK2, sequence (Q8IYT8 whole entry): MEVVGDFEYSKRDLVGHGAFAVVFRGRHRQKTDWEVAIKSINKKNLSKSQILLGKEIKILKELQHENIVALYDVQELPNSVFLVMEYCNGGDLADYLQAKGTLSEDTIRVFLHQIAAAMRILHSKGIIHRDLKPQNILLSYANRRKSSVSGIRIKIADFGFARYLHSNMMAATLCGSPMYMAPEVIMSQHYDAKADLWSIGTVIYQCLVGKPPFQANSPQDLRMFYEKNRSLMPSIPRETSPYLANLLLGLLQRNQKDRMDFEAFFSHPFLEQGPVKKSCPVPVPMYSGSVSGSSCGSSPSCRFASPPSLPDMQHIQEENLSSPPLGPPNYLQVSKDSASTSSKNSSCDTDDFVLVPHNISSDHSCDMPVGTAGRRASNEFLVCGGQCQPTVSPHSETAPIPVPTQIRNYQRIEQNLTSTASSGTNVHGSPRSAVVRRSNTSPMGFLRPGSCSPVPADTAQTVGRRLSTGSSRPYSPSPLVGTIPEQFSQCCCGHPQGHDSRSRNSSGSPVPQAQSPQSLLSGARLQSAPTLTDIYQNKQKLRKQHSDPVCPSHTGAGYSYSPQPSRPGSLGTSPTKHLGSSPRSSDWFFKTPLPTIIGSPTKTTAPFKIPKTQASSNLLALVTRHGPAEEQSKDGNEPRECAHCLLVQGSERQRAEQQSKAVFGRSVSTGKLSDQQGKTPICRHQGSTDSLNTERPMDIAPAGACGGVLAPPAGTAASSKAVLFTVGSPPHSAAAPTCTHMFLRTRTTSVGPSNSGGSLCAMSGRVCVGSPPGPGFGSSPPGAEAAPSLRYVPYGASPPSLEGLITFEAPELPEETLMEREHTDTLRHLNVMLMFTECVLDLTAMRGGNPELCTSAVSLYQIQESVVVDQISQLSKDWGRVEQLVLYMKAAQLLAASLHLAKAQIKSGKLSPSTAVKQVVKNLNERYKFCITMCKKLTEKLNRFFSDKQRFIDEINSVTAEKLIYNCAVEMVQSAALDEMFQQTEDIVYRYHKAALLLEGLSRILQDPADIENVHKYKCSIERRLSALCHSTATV

| Structure (SMILES) | IC50 (ULK1) [nM] | IC50 (ULK2) [nM] | EC50 (Cell) [nM] | solubility kinetic (Kinetic Solubility) [µM] |
| --- | --- | --- | --- | --- |
| CC(C)(CO)NC(=O)c1cc(-c2cnn3cc(N4CCNCC4)cnc23)cs1 [N-(1-hydroxy-2-methylpropan-2-yl)-4-[6-(piperazin-1-yl)pyrazolo[1,5-a]pyrimidin-3-yl]thiophene-2-carboxamide hydrochloride] | 100 to 499 | 500 to 1000 | – | – |
| O=C(N[C@@H](C1CC1)C(F)(F)F)c1cc(-c2cnn3cc(Nc4ccccc4)cnc23)cs1 | 1 to 49 | – | – | – |
| O=C(N[C@@H](C1CC1)C(F)(F)F)c1cc(-c2cnn3cc(N4CCNCC4)cnc23)cs1 | 1 to 49 | – | – | – |
| CC(C)(CO)NC(=O)c1cc(-c2cnn3cc(N4CCN(C(=O)OC(C)(C)C)CC4)cnc23)cs1 [tert-butyl 4-(3-{5-[(1-hydroxy-2-methylpropan-2-yl)carbamoyl]thiophen-3-yl}pyrazolo[1,5-a]pyrimidin-6-yl) piperazine-1-carboxylate] | 1 to 49 | 100 to 499 | – | – |
| CC(C)(C)OC(=O)N[C@@H]1CCCC[C@@H]1NC(=O)c1cc(-c2cnn3cc(N4CCN(C(=O)OC(C)(C)C)CC4)cnc23)cs1 [tert-butyl 4-[3-(5-{[(1S,2R)-2-{[(tert-butoxy)carbonyl]amino}cyclohexyl]carbamoyl}thiophen-3-yl)pyrazolo[1,5-a]pyrimidin-6-yl]piperazine-1-carboxylate] | 100 to 499 | 500 to 1000 | – | – |
| N[C@@H]1CCCC[C@@H]1NC(=O)c1cc(-c2cnn3cc(N4CCNCC4)cnc23)cs1 [N-[(1S,2R)-2-aminocyclohexyl]-4-[6-(piperazin-1-yl)pyrazolo[1,5-a]pyrimidin-3-yl]thiophene-2-carboxamide dihyrochloride] | 1 to 49 | 1 to 49 | 1 to 49 | > 300 |
| O=C(N[C@@H](C1CC1)C(F)(F)F)c1cc(-c2cnn3cc(Nc4ccc(F)cc4)cnc23)cs1 | 1 to 49 | – | – | – |
| NC1CCN(c2cnc3c(-c4csc(C(=O)N[C@@H](C5CC5)C(F)(F)F)c4)cnn3c2)CC1 | 1 to 49 | – | – | – |

Second part, the molecule after the results:

| IC50 (ULK1) [nM] | IC50 (ULK2) [nM] | EC50 (Cell) [nM] | solubility kinetic (Kinetic Solubility) [µM] | Structure (SMILES) |
| --- | --- | --- | --- | --- |
| 1 to 49 | – | – | – | CCC(NC(=O)c1cc(-c2cnn3cc(Nc4ccccc4)cnc23)cs1)C1CC1 (stereo not drawn) |
| 1 to 49 | 50 to 99 | 100 to 499 | 203 | CCC(CC)NC(=O)c1cc(-c2cnn3cc(N4CCC(N)CC4)cnc23)cs1 [4-[6-(4-aminopiperidin-1-yl)pyrazolo[1,5-a]pyrimidin-3-yl]-N-(pentan-3-yl)thiophene-2-carboxamide hydrochloride] |
| 1 to 49 | – | – | – | CC[C@H](NC(=O)c1cc(-c2cnn3cc(Nc4ccccc4)cnc23)cs1)C(F)(F)F |
| 50 to 99 | – | > 1000 | – | CCC(CC)NC(=O)c1cc(-c2cnn3cc(N4CCC(NC(=O)OC(C)(C)C)CC4)cnc23)cs1 |
| 1 to 49 | 1 to 49 | 100 to 499 | – | CCC(CC)NC(=O)c1cc(-c2cnn3cc(Nc4ccccc4)cnc23)cs1 [N-(pentan-3-yl)-4-[6-(phenylamino)pyrazolo[1,5-a]pyrimidin-3-yl]thiophene-2-carboxamide] |
| 100 to 499 | – | – | – | CCC(CC)NC(=O)c1cc(-c2cnn3cc(NC4CC4)cnc23)cs1 [4-[6-(cyclopropylamino)pyrazolo[1,5-a]pyrimidin-3-yl]-N-(pentan-3-yl)thiophene-2-carboxamide] |
| 50 to 99 | – | 500 to 1000 | > 300 | CCC(CC)NC(=O)c1cc(-c2cnn3cc(N4CCNCC4)cnc23)cs1 [hydrochloride] |
| 500 to 1000 | – | – | – | CCC(CC)NC(=O)c1cc(-c2cnn3cc(N4CCCC4)cnc23)cs1 [N-(pentan-3-yl)-4-[6-(pyrrolidin-1-yl)pyrazolo[1,5-a]pyrimidin-3-yl]thiophene-2-carboxamide] |
| 500 to 1000 | – | – | – | CCC(CC)NC(=O)c1cc(-c2cnn3cc(-n4ccccc4=O)cnc23)cs1 [4-[6-(2-oxo-1,2-dihydropyridin-1-yl)pyrazolo[1,5-a]pyrimidin-3-yl]-N-(pentan-3-yl)thiophene-2-carboxamide] |
| 1 to 49 | – | > 1000 | – | CCC(CC)NC(=O)c1cc(-c2cnn3cc(N4CCN(C(=O)OC(C)(C)C)CC4)cnc23)cs1 [tert-butyl 4-(3-{5-[(pentan-3-yl)carbamoyl]thiophen-3-yl}pyrazolo[1,5-a]pyrimidin-6-yl) piperazine-1-carboxylate] |
